Results from patent publication EP0099766A1, “1-3-Dihydro 4-(1-hydroxy-2-amino-ethyl)-2H-indol-2-one derivatives, their salts, process for their preparation, their use as medicines and compositions containing them” (ROUSSEL-UCLAF, priority 1982, dated 1984).

Assays:
souris = conditions: mouse, in vivo, po, 11520 min
Description: On a évalué les doses létales DLO des différents composés testés après administration par voie orale chez la souris.
On appelle DLO la dose maximale ne provoquant aucune mortalité en 8 jours.

[1] = tested on: oédème plantaire provoqué par la carraghénine chez le rat; assay: Anti-inflammatory activity: carrageenan-induced plantar oedema; format: in vivo; conditions: dose 0,4 mg/kg oral, given simultaneously with carrageenan; rat paw volume versus controls
Description: L'activité anti-inflammatoire a été déterminée sur le test de l'oédème plantaire provoqué par la carraghénine chez le rat.
On administre, à des rats mâles pesant de 130 à 150 g, 0,05 cm3 d'une suspension stérile à 1% de carraghénine dans l'articulation tibio-tarsienne d'une patte postérieure.
Simultanément, on administre le produit à étudier dans une suspension de carboxyméthylcellulose à 0,25% et de Tween à 0,02% par voie orale.
Le volume de la patte est mesuré avant l'administration, puis 2 heures, 4 heures, 6 heures, 8 heures et 24 heures après.
L'intensité de l'inflammation est maxima 4 à 6 heures après l'injection de carraghénine. La différence du volume des pattes des animaux traités et des témoins met en évidence l'action anti inflammatoire du médicament.

[2] = tested on: rats mâles Sprague-Dawley; assay: Anti-ulcer activity: Shay method modified by Guth (pylorus ligation plus aspirin/HCl gastric lesions); format: in vivo; conditions: dose 0,4 mg/kg per os one hour before pylorus ligation; aspirin 200 mg/kg per os; Sprague-Dawley rat; mean ulcer score
Experimental: L'essai est effectué selon la méthode de Shay modifiée par GUTH (GUTH, P.H. et coll, Topical aspirin plus HCl gastric lesions in the rat. Gastroenterology 1979,76, 88-93.) Des rats mâles Sprague-Dawley d'un poids voisin de 250 g, à jeun depuis 48 heures sauf boisson, ont été utilisés. On pratique sous légère anesthésie à l'halothane, la ligature du pylore et une . heure plus tard, on administre l'aspirine per os à la dose de 200 mg/kg, en suspension dans la carboxyméthylcellulose à 0,25% renfermant 15% d'acide chlorhydrique N. Deux heures plus tard, on sacrifie les animaux, prélève et examine les estomacs. Chaque lésion ulcéreuse est cotée de la façon suivante :
La somme des cotations est calculée pour chaque estomac, et le score moyen est établi.pour chaque lot.
Les substances à étudier sont administrées per os une heure avant la ligature.

| Structure (SMILES) | DL0 (souris) [mg/kg] | protège les animaux traités (activité anti-inflammatoire) [1] [%] | protège les animaux traités (activité antiulcéreuse) [2] [%] |
| --- | --- | --- | --- |
| CNCC(O)c1cccc2c1CC(=O)N2 (stereo not shown) [compound 3, 1,3-dihydro 4-(1-hydroxy 2-(méthylamino)éthyl) 2H-indol-2-one] | > 400 | – | – |
| CCNCC(O)c1cccc2c1CC(=O)N2 (stereo not shown) [compound 7, Chlorhydratede 1,3-dugtdri 4-/(1-hydroxy 2-éthyl-amino) éthyl/ 2H-indol-2-one] | > 400 | – | – |
| CC(C)NCC(O)c1cccc2c1CC(=O)N2 (stereo not shown) [exemple 1, 1,3-dihydro 4-/2-(1-méthyléthylamino) 1-hydroxy éthyl/ 2H-indol-2-one] | 200 | 61 | – |
| CCCNCC(O)c1cccc2c1CC(=O)N2 (stereo not shown) [exemple 2, 1,3-dihydro 4-/1-hydroxy 2-(propylamino)éthyl/ 2H-indol-2-one] | 200 | – | 60 |
| O=C1Cc2c(cccc2C(O)CNCC2CC2)N1 (stereo not shown) [exemple 5, Chlorhydratede 1,3-dihydro 4-/1-hydroxy 2-(cyclo-propylméthylamino) éthyl/ 2H-indol-2-one] | 200 | – | – |
